# Source: article PMC4965777, “Molecular characterization of Tps1 and Treh genes in Drosophila and their role in body water homeostasis” (Scientific Reports, 2016)
# Experiments:
# Type in all cases: biochemical
# [1] = molecular target: T1, cTreh (Drosophila melanogaster, UniProt A4UZR3); assay: trehalose hydrolysis; glucose released determined with glucose assay kit; settings: 5 μg trehalose; 0.12 pmol His-cTreh in 15 μl PBS; 30 °C, 2 h
# T1 construct: gene Treh; cytoplasmic isoform without signal peptide, N-terminal His-tag (pET28a), E. coli BL21(DE3), Ni-NTA
# T1 sequence (A4UZR3 1-560): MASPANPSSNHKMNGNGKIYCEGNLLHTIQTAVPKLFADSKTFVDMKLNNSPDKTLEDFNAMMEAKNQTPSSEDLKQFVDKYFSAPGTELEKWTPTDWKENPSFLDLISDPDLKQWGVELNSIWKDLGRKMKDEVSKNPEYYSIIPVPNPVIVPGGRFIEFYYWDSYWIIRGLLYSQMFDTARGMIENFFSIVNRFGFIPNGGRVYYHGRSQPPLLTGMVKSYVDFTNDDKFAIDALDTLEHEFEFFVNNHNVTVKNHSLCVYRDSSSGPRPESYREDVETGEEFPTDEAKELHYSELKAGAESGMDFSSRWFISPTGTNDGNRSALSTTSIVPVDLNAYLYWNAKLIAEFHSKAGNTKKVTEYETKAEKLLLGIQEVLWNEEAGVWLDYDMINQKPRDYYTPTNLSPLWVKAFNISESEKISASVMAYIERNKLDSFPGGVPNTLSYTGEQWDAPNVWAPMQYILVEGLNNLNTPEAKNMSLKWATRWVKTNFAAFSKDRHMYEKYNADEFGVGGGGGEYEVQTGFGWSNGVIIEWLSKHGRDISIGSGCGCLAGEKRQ
# [2] = molecular target: T2, OtsB (Escherichia coli, UniProt P31678); assay: dephosphorylation; trehalose released determined with trehalase and glucose assay kit; settings: 0.5 mM T6P; 5 mM MgCl2; PBS-type phosphate buffer pH 7.4; 30 °C; 0.02 nmol enzyme in 30 μl
# T2 construct: N-terminal His-tag (pET28a), E. coli BL21(DE3), Ni-NTA
# [3] = molecular target: T3, CG5171 (Drosophila melanogaster, UniProt Q9VM19); assay: as above; settings: 0.5 mM T6P; 5 mM MgCl2; PBS-type phosphate buffer pH 7.4; 30 °C; 0.02 nmol enzyme in 30 μl
# T3 construct: gene Tpp; N-terminal His-tag (pET28a), E. coli BL21(DE3), Ni-NTA
# T3 sequence (Q9VM19 1-273): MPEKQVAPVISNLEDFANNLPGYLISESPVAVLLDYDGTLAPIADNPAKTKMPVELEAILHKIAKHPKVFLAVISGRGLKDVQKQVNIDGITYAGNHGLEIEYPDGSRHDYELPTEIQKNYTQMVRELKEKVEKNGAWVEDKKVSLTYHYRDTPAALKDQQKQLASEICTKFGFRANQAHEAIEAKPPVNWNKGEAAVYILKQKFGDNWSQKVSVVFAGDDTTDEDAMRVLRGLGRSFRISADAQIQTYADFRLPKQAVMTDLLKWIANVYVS
# [4] = molecular target: T4, Tps1-TPP (Drosophila melanogaster, UniProt Q9Y119); assay: as above; settings: 0.5 mM T6P; 5 mM MgCl2; PBS-type phosphate buffer pH 7.4; 30 °C; 0.02 nmol enzyme in 30 μl
# T4 construct: C-terminal TPP domain only (borders not in text), N-terminal His-tag (pET28a), E. coli BL21(DE3), Ni-NTA
# T4 sequence (Q9Y119 entry or part of it): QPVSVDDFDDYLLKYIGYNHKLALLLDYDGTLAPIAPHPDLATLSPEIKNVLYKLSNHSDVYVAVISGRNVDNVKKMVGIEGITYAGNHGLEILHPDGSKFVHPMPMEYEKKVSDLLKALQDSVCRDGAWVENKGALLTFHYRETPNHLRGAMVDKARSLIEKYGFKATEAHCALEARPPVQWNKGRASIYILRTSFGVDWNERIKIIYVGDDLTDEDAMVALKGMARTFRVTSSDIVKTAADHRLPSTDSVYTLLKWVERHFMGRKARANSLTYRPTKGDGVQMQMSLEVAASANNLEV
# T2 sequence (P31678 whole entry): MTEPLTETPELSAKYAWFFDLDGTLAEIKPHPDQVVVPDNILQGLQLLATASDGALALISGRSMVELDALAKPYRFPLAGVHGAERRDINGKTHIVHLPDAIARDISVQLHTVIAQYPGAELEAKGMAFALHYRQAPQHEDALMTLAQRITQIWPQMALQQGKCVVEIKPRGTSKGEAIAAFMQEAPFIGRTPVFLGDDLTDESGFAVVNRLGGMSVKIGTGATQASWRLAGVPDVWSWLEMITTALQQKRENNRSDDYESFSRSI
SMILES,trehalose hydrolysis; glucose released determined with glucose assay kit [1],dephosphorylation; trehalose released determined with trehalase and glucose assa [2],dephosphorylation; trehalose released determined with trehalase and glucose assa [3],dephosphorylation; trehalose released determined with trehalase and glucose assa [4]
OC[C@H]1O[C@H](O[C@H]2O[C@H](CO)[C@@H](O)[C@H](O)[C@H]2O)[C@H](O)[C@@H](O)[C@@H]1O [trehalose],The recombinant cTreh exhibited a specific breakdown of trehalose to produce glucose in vitro,,,
O=P(O)(O)OC[C@H]1O[C@H](O[C@H]2O[C@H](CO)[C@@H](O)[C@H](O)[C@H]2O)[C@H](O)[C@@H](O)[C@@H]1O [trehalose-6-phosphate],,Tps1-TPP showed a lower activity than CG5171 and OtsB in vitro,"recombinant Tps1-TPP and CG5171, but not CG5177, dephosphorylated T6P under our experimental conditions","recombinant Tps1-TPP and CG5171, but not CG5177, dephosphorylated T6P under our experimental conditions"
